Results from patent US4473554A, “Bestatin-related compounds as immunopotentiator” (Zaidan Hojin Biseibutsu Kagaku Kenkyu Kai, priority 1982, dated 1984).
Read-outs that look alike come from different tables or passages of the source.

How the values were obtained:
ICR-strain mice = assay: acute toxicity, intraperitoneal, ICR-strain mice; format: in vivo, mouse; conditions: dosage of 100 mg/kg
Description: In order to estimate the acute toxicity of the compound of the formula (VIII) or (IIId), some of the test compound was intraperitoneally given to ICR-strain mice (in groups each consisting of 6 mice, male, 5 weeks-aged, average body weight 20 g.), when all the tested mice tolerated intraperitoneal administration of (2S,3R)-APHA; (2S)-2-N-[(2'S,3'R)-3'-amino-2'-hydroxy-4'-phenyl-butanoyl]amino-4-methyl- pentanol; (2S)-2-N-[(2'S,3'R)-3'-amino-2'-hydroxy-4'-phenylbutanoyl-(S)-leucyl]amino-4-methyl-pentanol; (2S,3R)-3-amino-2-hydroxy-4-phenylbutanoyl-(S)-leucyl-(S)-leucine; (2S,3R)-3-amino-2-hydroxy-4-phenyl-butanoyl-(S)-leucyl-(S)-arginine; (2S,3R)-3-amino-2-hydroxy-4-phenylbutanoyl-(S)-leucyl-(S)-asparagine; (2R,3R)-3-amino-2-hydroxy-4-phenylbutanoyl-(S)-leucyl-(R)-asparagine; and (2S,3R)-3-amino-2-hydroxy-4-phenylbutanoyl-(S)-leucyl-(R)-arginine at a dosage of 100 mg/kg.

aminopeptidase B = molecular target: T1, aminopeptidase B (Rattus norvegicus, UniProt O09175); assay: aminopeptidase B-inhibiting activity (modified Hopsu method, arginine β-naphthylamide substrate); format: biochemical; conditions: 37° C., pH 7.0, 30 minutes
T1 sequence (O09175 1-650): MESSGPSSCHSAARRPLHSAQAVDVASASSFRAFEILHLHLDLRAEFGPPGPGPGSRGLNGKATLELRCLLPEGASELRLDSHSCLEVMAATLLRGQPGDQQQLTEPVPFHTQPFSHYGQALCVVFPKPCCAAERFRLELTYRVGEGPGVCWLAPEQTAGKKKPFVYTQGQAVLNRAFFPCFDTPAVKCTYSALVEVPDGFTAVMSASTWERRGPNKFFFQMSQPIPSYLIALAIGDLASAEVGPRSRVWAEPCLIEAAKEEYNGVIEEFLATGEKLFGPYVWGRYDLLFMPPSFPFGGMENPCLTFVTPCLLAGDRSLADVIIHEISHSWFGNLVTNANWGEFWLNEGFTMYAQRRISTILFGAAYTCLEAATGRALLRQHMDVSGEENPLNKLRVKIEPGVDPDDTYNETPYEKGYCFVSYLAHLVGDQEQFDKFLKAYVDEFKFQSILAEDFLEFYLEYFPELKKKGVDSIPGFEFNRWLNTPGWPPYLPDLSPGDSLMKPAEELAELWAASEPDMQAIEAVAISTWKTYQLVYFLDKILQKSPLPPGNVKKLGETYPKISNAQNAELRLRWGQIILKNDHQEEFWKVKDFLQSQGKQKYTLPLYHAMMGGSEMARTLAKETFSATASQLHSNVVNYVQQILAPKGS
Experimental: The aminopeptidase B-inhibiting activity was determined according to a modification of the method of V. K. Hopsu et al. described in the "Archives of Biochemistry and Biophysics" Vol. 114, 557 (1966). Thus, a mixture of 0.8 ml of 0.1 mM of (S)-arginine β-naphthylamide and 1.0 ml of 0.1M Tris-hydrochloride buffer (pH 7.0) was admixed with 0.7 ml of 0.1M Tris-hydrochloride buffer (pH 7.0) containing the test compound and then heated at 37° C. for 3 minutes. […] After the reaction at 37° C. for 30 minutes, the reaction solution was admixed with 0.6 ml of 0.1M acetate buffer (pH 4.2) containing 1.0 mg/ml of diazonium salt of o-aminoazotoluene (Garnet GBC) and 1.0% of a surfactant "Tween" 20 (a registered trademark) to stop the enzymatic reaction and then allowed to stand at ambient temperature for 15 minutes. After this, absorbance (a) at 525 nm of the reaction solution was measured by spectrophotometer. For the control, the above procedure was repeated without the test compound and the adsorbence (b) was measured. Percentages for inhibition to aminopeptidase B were calculated according to the equation: [formula] Inhibition percentages at various concentrations of the test compound were measured, and from the values of inhibition percentages measured 50% Inhibition Concentration (IC50) was evaluated.

[1] = system: D.T.H. response in mice immunized with sheep red blood cell (SRBC); assay: Delayed Type Hypersensitivity (D.T.H.) footpad test in mice immunized with SRBC, Example 2; format: in vivo, mouse; conditions: CDF1 mice, control = 100
Experimental: This Example describes the tests for evaluation of the immunopotentiating activity of the new compound of this invention.
A suspension of 10^8 sheep red blood cells in 0.05 ml of physiological saline was subcutaneously injected at the time of immunization into the right hind footpad of each CDF1 -mouse under test (female, 8 weeks-aged, 5 mice in each group) to establish D.T.H. Simultaneously to the immunization, […] prepared by dissolving the test compound in physiological saline and then filtering the solution by a micropore filter (pore diameter: 0.22 micrometers). Four days later, 10^8 SRBC were subcutaneously injected into the left […] footpad of each test mouse for elicitation of the D.T.H. response. 24 Hours after the elicitating injection, the increased thickness of the left hind footpad was measured with calipers to estimate the degree of swelling in the footpad. The swelling degree is expressed in term of the values calculated by the equation: [formula] The degree of swelling serves to evaluate the degree of cell-mediated immunity involved. For comparison, a suspension of bestatin dispersed in water was tested in the same way as above.

[2] = system: D.T.H. response in mice immunized with SRBC as antigen; assay: D.T.H. footpad test in mice immunized with SRBC, Examples 3-6 (dosages per mouse); format: in vivo; conditions: for enhancement of D.T.H. response / cell-mediated immunity: oral, 10 mcg/mouse or 1 mcg/mouse
Experimental: The effect of (2S,3R)-AHPA on cell-mediated immunity was tested in the same way in Example 2, namely according to the D.T.H. technique using mice immunized with sheep red blood cell as antigen. Thus, a suspension of 10^8 sheep red blood cells in 0.05 ml of physiological saline were subcutaneously injected at the time of immunization into the right hind footpad of each CDF1 -mouse under test (female, 8 weeks-aged, 5 mice in each group) to establish D.T.H. […] The degree of swelling was evaluated. By way of comparison, bestatin was tested in the same way as above. […] The effect of (2S,3R)-AHPA on the D.T.H. response was estimated in the same manner as in the above procedure (A) of Example 3 by orally administering 1 mcg/mouse, 0.1 mcg/mouse or 0.01 mcg/mouse of (2S,3R)-AHPA to each mouse under test. […] The effect of the mode of administering (2S,3R)-AHPA on the D.T.H. response was estimated in the same manner as in the procedure (A) of Example 3, except that the test compound (as aqueous solution) was injected intraperitoneally in stead of being given orally.

[3] = oral 0.05 mg/kg at immunization
[4] = Table 7, oral 1 mcg/mouse, control = 100
[5] = Table 7, oral 10 mcg/mouse, control = 100

## CC(C)C[C@H](NC(=O)[C@@H](O)[C@H](N)Cc1ccccc1)C(=O)N[C@@H](CC(N)=O)C(=O)O
ICR-strain mice
  acute toxicity: tolerance of intraperitoneal administration: tolerated

## CC(C)C[C@@H](CO)NC(=O)[C@H](CC(C)C)NC(=O)C(O)[C@H](N)Cc1ccccc1 (stereo partly drawn) [Compound No. 4, (2S)-2-N-[(2'S,3'R)-3'-amino-2'-hydroxy-4'-phenylbutanoyl-(S)-leucyl]amino-4-methyl-pentanol]
Aminopeptidase B
  IC50: 5.4 µg/mL
[1]; oral 0.5 mg/kg at immunization
  Degree of swelling: 103%

## CC(=O)N[C@H](Cc1ccccc1)[C@H](O)C(=O)N[C@H](CO)CC(C)C [Compound No. 3, (2S)-2-N-[(2'S,3'R)-3'-N-acetylamino-2'-hydroxy-4'-phenylbutanoyl]amino-4-methyl-pentanol]
Aminopeptidase B
  IC50: 48.9 µg/mL
Solubility in water
  solubility in water: soluble in water
[1]; [3]
  Degree of swelling: 124%
[1]; oral 0.5 mg/kg at immunization
  Degree of swelling: 131%

## N[C@@H](Cc1ccccc1)[C@H](O)C(=O)O [(2S,3S)-AHPA]
[2]; Table 6, oral 1 mcg/mouse
  Degree of swelling: 111%
[2]; Table 6, oral 10 mcg/mouse
  Degree of swelling: 135%
  Increased in thickness of footpad (± S.D.): 11.9 ± 1.36 × 0.1 mm

## N[C@H](Cc1ccc(O)cc1)[C@H](O)C(=O)O [(2S,3R)-p-OH-AHPA, (2S,3R)-3-amino-2-hydroxy-4-p-hydroxyphenylbutanoic acid]
[2]; Table 8, oral 1 mcg/mouse
  Increase in thickness of footpad (+ S.D.): 9.7 ± 0.54 × 0.1 mm
[2]; Table 8, oral 1 mcg/mouse, control = 100
  Degree of swelling: 114%
[2]; Table 8, oral 10 mcg/mouse
  Increase in thickness of footpad (+ S.D.): 11.0 ± 1.75 × 0.1 mm
[2]; Table 8, oral 10 mcg/mouse, control = 100
  Degree of swelling: 129%
[2]
  enhancement of D.T.H. response / cell-mediated immunity: enhances likewise the cell-mediatedimmunity
Solubility in water
  solubility in water: soluble in water

## CC(C)C[C@H](NC(=O)[C@@H](O)[C@H](N)Cc1ccccc1)C(=O)N[C@H](CC(C)C)C(=O)O [Compound No. 7, (2S,3R)-3-amino-2-hydroxy-4-phenylbutanoyl-(S)-leucyl-(R)-leucine]
Aminopeptidase B
  IC50: 15 µg/mL
[1]; oral 0.5 mg/kg at immunization
  Degree of swelling: 120%

## N[C@H](Cc1ccccc1)[C@@H](O)C(=O)O [(2R,3R)-AHPA]
[2]; Table 6, oral 1 mcg/mouse
  Degree of swelling: 135%
  Increased in thickness of footpad (± S.D.): 11.9 ± 0.74 × 0.1 mm
[2]; Table 6, oral 10 mcg/mouse
  Increased in thickness of footpad (± S.D.): 9.6 ± 0.65 × 0.1 mm
Solubility in water
  solubility in water: soluble in water

## CC(C)C[C@H](NC(=O)[C@H](CC(C)C)NC(=O)[C@@H](O)[C@H](N)Cc1ccccc1)C(=O)O
ICR-strain mice
  acute toxicity: tolerance of intraperitoneal administration: tolerated

## CC(C)C[C@H](NC(=O)[C@@H](O)[C@H](N)Cc1ccccc1)C(=O)N[C@@H](CCCNC(=N)N)C(=O)O
ICR-strain mice
  acute toxicity: tolerance of intraperitoneal administration: tolerated

## N[C@@H](Cc1ccccc1)[C@@H](O)C(=O)O [(2R,3S)-AHPA]
[2]; Table 6, oral 1 mcg/mouse
  Degree of swelling: 133%
  Increased in thickness of footpad (± S.D.): 11.7 ± 1.15 × 0.1 mm
[2]; Table 6, oral 10 mcg/mouse
  Degree of swelling: 120%
  Increased in thickness of footpad (± S.D.): 10.6 ± 0.97 × 0.1 mm

## CC(C)C[C@H](NC(=O)C(O)[C@H](N)Cc1ccccc1)C(=O)N[C@H](Cc1ccccc1)[C@H](O)C(=O)O (stereo partly drawn) [Compound No. 8, (3R)-N-[(2'S,3'R)-3'-amino-2'-hydroxy-4'-phenylbutanoyl-(S)-leucyl]amino-(2S)-2-hydroxy-4-phenylbutanoic acid]
Aminopeptidase B
  IC50: 53 µg/mL

## COC(=O)[C@@H](O)[C@H](N)Cc1ccccc1.Cl [(2S,3R)-AHPA methylester hydrochloride]
[2]; Table 7, oral 1 mcg/mouse
  Increase in thickness of footpad (± S.D.): 11.7 ± 1.29 × 0.1 mm
[2]; [4]
  Degree of swelling: 134%
[2]; Table 7, oral 10 mcg/mouse
  Increase in thickness of footpad (± S.D.): 11.5 ± 1.12 × 0.1 mm
[2]; [5]
  Degree of swelling: 132%
[2]
  enhancement of D.T.H. response / cell-mediated immunity: active substantially as much as the free acid form of (2S,3R)-AHPA

## CC(C)C[C@@H](CO)NC(=O)[C@@H](O)[C@H](N)Cc1ccccc1 [Compound No. 2, (2S)-2-N-[(2'S,3'R)-3'-amino-2'-hydroxy-4'-phenylbutanoyl]amino-4-methyl-pentanol]
Aminopeptidase B
  IC50: 0.65 µg/mL
[1]; [3]
  Degree of swelling: 106%
[1]; oral 0.5 mg/kg at immunization
  Degree of swelling: 126%
ICR-strain mice
  acute toxicity: tolerance of intraperitoneal administration: tolerated

## NC(=O)[C@H](O)[C@H](N)Cc1ccccc1 [(2R,3R)-AHPA amide]
Solubility in water
  solubility in water: soluble in water

## Cl.N[C@H](Cc1ccccc1)[C@H](O)CO [Compound No. 1, (2S,3R)-3-amino-2-hydroxy-4-phenyl-1-butanol-hydrochloride]
Aminopeptidase B; read-out: IC50
  IC50: > 230 µM
Solubility in water
  solubility in water: soluble in water
[1]; [3]
  Degree of swelling: 123%
[1]; oral 0.5 mg/kg at immunization
  Degree of swelling: 129%

## CC(C)C[C@@H](CO)NC(=O)[C@H](CC(C)C)NC(=O)[C@@H](O)[C@H](N)Cc1ccccc1
ICR-strain mice
  acute toxicity: tolerance of intraperitoneal administration: tolerated

## NC(=O)[C@@H](O)[C@H](N)Cc1ccccc1 [(2S,3R)-AHPA amide]
[2]; Table 7, oral 1 mcg/mouse
  Increase in thickness of footpad (± S.D.): 9.8 ± 0.82 × 0.1 mm
[2]; [4]
  Degree of swelling: 111%
[2]; Table 7, oral 10 mcg/mouse
  Increase in thickness of footpad (± S.D.): 11.5 ± 1.20 × 0.1 mm
[2]; [5]
  Degree of swelling: 131%
